For one assay, the system named is DOPA levels in striatum. The experiment in a line: Reserpine-induced DOPA accumulation. It counts as in vivo, Male Wistar rats. The following applies: rats, s.c. The method, then: Example-53: Reserpine-Induced DOPA Accumulation
Male Wistar rats were pretreated with reserpine (5 mg/kg, s.c.) approximately 18 h before sacrifice and were thereafter fasted until sacrifice. Example-2 (3 mg/kg, p.o.) and (3-(3-hydroxyphenyl)-N-n-propylpiperidine (3-PPP); 30 mg/kg, s.c.) were administered 1.16 h and 1 h, respectively before sacrifice. Haloperidol (0.5 mg/kg, s.c.) was used as a positive control and was dosed 10 min prior to 3-PPP in a separate group of animals. 3-Hydroxybenzylhydrazine dihydrochloride (NSD-1015; 100 mg/kg, s.c.) was then administered 0.5 h before sacrifice. Each rat was sacrificed, brain was removed and then striatum was isolated. The tissue was immediately weighed and homogenized in 0.1 N perchloric acid by means of an ultrasonic disruptor while being cooled in ice. The homogenate was centrifuged at 4° C. at 20,000 g for 15 min. The supernatant was assayed for dihydroxyphenylalanine (DOPA) levels using HPLC-ECD.

A further assay addresses T1, human SERT (Homo sapiens, UniProt P31645).
T1 construct: expressed in transfected cells; host or cells: HEK293
The experiment in a line: Determination of Ki values at SERT receptor ([3H]-Citalopram SPA binding). The following applies: hSERT, HEK293, [3H]-Citalopram 2 nM. The procedure: Example-46: Determination of Ki Values at SERT Receptor
• Receptor source: Recombinant mammalian cells (HEK293) • Radioligand: [^3H]-Citalopram (80.8 Ci/mmol) • Final ligand concentration: 2 nM • Non-specific determinant: 0.1 mM Venlafaxine • Reference compound: Venlafaxine • Positive control: Venlafaxine Incubation conditions: Reactions were carried out in buffer with pH 7.4 containing 50 mM Tris-HCl, 150 mM NaCl, 5 mM KCl and Scintillation proximity assay (SPA) beads (0.1 mg/well) for 3 h at RT. Radioactivity proximal to SPA beads was determined by scintillation proximity assay and compared to the control values in order to ascertain any interactions of the test compound(s) with cloned human SERT receptor binding site.

The target of assay [1] is T2, human dopamine D2s receptor (Homo sapiens, UniProt P14416).
T2 construct: expressed in transfected cells; host or cells: CHO-K1
T2 sequence (P14416 1-414 isoform P14416-2): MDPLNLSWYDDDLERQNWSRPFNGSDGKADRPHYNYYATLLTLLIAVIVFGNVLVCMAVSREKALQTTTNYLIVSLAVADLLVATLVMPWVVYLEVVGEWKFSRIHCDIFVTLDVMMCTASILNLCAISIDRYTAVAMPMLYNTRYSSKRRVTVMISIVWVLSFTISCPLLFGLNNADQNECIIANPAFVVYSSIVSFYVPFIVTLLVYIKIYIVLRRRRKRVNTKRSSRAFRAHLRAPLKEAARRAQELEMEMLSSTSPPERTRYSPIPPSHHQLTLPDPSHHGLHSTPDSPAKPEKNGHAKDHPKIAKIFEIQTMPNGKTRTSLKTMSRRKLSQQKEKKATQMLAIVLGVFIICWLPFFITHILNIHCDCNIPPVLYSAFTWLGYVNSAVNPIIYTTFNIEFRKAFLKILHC
The experiment in a line: Determination of Ki values at D2S receptor ([3H]-Raclopride radioligand binding). Particulars: hD2 (D2S), CHO-K1, [3H]-Raclopride 4 nM; read-out: Ki D2. The procedure: Example-45: Determination of Ki Values at D2S Receptor
• Receptor source: Recombinant mammalian cells (CHO-K1) • Radioligand: [^3H]-Raclopride (80.8 Ci/mmol) • Final ligand concentration: 4 nM • Non-specific determinant: 0.1 mM Haloperidol • Reference compound: Haloperidol • Positive control: Haloperidol Incubation conditions: Reactions were carried out in buffer with pH 7.4 containing 50 mM Tris-HCl, 120 mM NaCl, 5 mM KCl, 5 mM MgCl2, 1 mM EDTA for 2 h at RT. The reaction was terminated by rapid vacuum filtration onto the glass fiber filters. Radioactivity trapped onto the filters was determined and compared to the control values in order to ascertain any interactions of the test compound(s) with cloned human dopamine D2s receptor binding site.

The target in assay [2] is T3, human histamine H1 receptor (Homo sapiens, UniProt P35367).
T3 construct: expressed in transfected cells; host or cells: CHO-K1
T3 sequence (P35367 whole entry): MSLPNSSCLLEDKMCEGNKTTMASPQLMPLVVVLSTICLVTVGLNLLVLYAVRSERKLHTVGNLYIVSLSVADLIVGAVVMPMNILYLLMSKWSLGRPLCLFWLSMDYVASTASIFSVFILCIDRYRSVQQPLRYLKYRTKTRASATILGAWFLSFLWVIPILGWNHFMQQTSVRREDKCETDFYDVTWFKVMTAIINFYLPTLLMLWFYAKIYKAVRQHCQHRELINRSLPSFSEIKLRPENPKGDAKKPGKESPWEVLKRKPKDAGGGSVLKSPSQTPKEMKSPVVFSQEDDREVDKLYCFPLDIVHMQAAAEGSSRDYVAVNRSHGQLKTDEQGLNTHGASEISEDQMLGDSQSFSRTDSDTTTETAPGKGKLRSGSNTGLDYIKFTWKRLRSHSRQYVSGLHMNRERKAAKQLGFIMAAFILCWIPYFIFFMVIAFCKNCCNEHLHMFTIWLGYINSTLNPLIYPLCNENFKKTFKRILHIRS
The assay can be described thus: Determination of Ki values at histamine H1 receptor ([3H]-Pyrilamine SPA binding). The following applies: hH1, CHO-K1, [3H]-Pyrilamine 2 nM. The procedure: Example-48: Determination of Ki values at Histamine H1 receptor
• Receptor source: Recombinant mammalian cells (CHO-K1) • Radioligand: [^3H]-Pyrilamine (20.7 Ci/mmol) • Final ligand concentration: 2 nM • Non-specific determinant: 0.1 mM Pyrilamine • Reference compound: Pyrilamine • Positive control: Pyrilamine Incubation conditions: Reactions were carried out in buffer with pH 7.4 containing 67 mM Tris-HCl and SPA beads (0.1 mg/well) for 1 h at 37° C. Radioactivity proximal to SPA beads was determined by scintillation proximity assay and compared to the control values in order to ascertain any interactions of the test compound(s) with cloned human histamine H1 receptor binding site.

For the next assay, the target named is T4, human 5-HT1A receptor (Homo sapiens, UniProt P08908).
T4 construct: expressed in transfected cells; host or cells: HEK293-EBNA
T4 sequence (P08908 1-422): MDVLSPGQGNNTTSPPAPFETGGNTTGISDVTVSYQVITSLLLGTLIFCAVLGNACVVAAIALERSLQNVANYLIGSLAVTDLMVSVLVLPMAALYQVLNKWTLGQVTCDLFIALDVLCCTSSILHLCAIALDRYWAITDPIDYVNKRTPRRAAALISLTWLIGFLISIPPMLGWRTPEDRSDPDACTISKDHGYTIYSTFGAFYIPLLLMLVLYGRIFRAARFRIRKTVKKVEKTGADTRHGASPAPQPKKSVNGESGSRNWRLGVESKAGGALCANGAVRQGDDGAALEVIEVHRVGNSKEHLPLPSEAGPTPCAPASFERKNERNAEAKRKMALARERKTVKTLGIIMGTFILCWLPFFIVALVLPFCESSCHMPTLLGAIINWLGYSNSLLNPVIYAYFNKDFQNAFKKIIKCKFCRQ
The experiment in a line: Determination of Ki values at 5-HT1A receptor ([3H]-8-Hydroxy DPAT radioligand binding). Particulars: h5-HT1A, HEK293-EBNA, [3H]-8-Hydroxy DPAT 0.8 nM. The method, then: Example-43: Determination of Ki Values at 5-HT1A Receptor
• Receptor source: Recombinant mammalian cells (HEK293-EBNA) • Radioligand: [^3H]-8-Hydroxy DPAT (200 Ci/mmol) • Final ligand concentration: 0.8 nM • Non-specific determinant: 0.1 mM U92016A • Reference compound: U92016A • Positive control: U92016A Incubation conditions: Reactions were carried out in buffer with pH 7.4 containing 50 mM Tris-HCl, 0.5 mM EDTA, 10 mM MgSO4, 0.1% Ascorbic acid for 2 h at RT. The reaction was terminated by rapid vacuum filtration onto the glass fiber filters. Radioactivity trapped onto the filters was determined and compared to the control values in order to ascertain any interactions of the test compound(s) with cloned human 5-HT1A receptor binding site.

For a further assay, the target named is T5, human 5-HT2A receptor (Homo sapiens, UniProt P28223).
T5 construct: expressed in transfected cells; host or cells: CHO-K1
T5 sequence (P28223 whole entry): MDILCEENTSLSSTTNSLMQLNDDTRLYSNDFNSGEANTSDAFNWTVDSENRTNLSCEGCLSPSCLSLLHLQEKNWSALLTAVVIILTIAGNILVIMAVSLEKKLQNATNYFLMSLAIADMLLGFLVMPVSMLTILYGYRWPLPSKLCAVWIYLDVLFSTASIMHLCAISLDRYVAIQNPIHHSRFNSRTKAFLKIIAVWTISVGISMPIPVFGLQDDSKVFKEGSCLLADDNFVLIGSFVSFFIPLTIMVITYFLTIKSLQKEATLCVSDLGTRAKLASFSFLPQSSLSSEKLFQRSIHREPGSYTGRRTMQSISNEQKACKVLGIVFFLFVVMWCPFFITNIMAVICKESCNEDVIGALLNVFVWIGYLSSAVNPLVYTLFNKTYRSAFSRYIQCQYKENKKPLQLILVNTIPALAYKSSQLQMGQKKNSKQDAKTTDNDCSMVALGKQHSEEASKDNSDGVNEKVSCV
The assay can be described thus: Determination of Ki values at 5-HT2A receptor ([3H]-Ketanserine radioligand binding). Particulars: h5-HT2A, CHO-K1, [3H]-Ketanserine 1.25 nM. The method, then:
Example-44: Determination of Ki Values at 5-HT2A Receptor
• Receptor source: Recombinant mammalian cells (CHO-K1) • Radioligand: [^3H]-Ketanserine (41.9 Ci/mmol) • Final ligand concentration: 1.25 nM • Non-specific determinant: 0.1 mM 1-Napthyl piperazine (1-NP) • Reference compound: 1-Napthyl piperazine (1-NP) • Positive control: 1-Napthyl piperazine (1-NP) Incubation conditions: Reactions were carried out in buffer with pH 7.4 containing 50 mM Tris-HCl, 4 mM CaCl2, 0.1% Ascorbic acid for 1 h at RT. The reaction was terminated by rapid vacuum filtration onto the glass fiber filters. Radioactivity trapped onto the filters was determined and compared to the control values in order to ascertain any interactions of the test compound(s) with cloned human 5-HT2A receptor binding site.

In assay [3] the target is T6, human adrenergic α1B receptor (Homo sapiens, UniProt P35368).
T6 construct: expressed in transfected cells; host or cells: Chem-1
T6 sequence (P35368 1-520): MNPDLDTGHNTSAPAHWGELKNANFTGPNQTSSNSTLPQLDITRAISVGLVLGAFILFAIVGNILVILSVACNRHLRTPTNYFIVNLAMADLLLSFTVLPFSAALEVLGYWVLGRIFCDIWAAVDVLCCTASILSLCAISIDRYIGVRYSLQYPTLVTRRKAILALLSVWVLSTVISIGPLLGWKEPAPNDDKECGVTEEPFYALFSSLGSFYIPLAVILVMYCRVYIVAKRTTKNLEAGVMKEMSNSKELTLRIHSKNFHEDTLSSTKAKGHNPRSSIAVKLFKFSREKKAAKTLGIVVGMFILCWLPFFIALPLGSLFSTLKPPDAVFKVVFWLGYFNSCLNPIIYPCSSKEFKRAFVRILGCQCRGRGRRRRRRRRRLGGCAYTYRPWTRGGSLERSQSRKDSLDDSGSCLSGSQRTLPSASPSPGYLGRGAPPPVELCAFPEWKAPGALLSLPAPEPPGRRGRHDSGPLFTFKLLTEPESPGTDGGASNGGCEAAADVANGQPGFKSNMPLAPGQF
The experiment in a line: Determination of Ki values at adrenergic α1B receptor ([3H]-Prazosin radioligand binding). Particulars: hα1B, Chem-1 cells, [3H]-Prazosin 1 nM; read-out: Ki Alpha1B. The procedure:
Example-47: Determination of Ki Values at Adrenergic α1B Receptor
• Receptor source: Recombinant mammalian cells (Chem-1) • Radioligand: [^3H]-Prazosin (77.4 Ci/mmol) • Final ligand concentration: 1 nM • Non-specific determinant: 0.1 mM Prazosin • Reference compound: Prazosin • Positive control: Prazosin Incubation conditions: Reactions were carried out in buffer with pH 7.4 containing 67 mM Tris-HCl, 67 μM EDTA, […] for 1 h at RT. The reaction was terminated by rapid vacuum filtration onto the glass fiber filters. Radioactivity trapped onto the filters was determined and compared to the control values in order to ascertain any interactions of the test compound(s) with cloned human adrenergic α1B receptor binding site.

Structures are written as SMILES. Structures can show the parent of a compound that is named as a salt.

T1 sequence (P31645 whole entry): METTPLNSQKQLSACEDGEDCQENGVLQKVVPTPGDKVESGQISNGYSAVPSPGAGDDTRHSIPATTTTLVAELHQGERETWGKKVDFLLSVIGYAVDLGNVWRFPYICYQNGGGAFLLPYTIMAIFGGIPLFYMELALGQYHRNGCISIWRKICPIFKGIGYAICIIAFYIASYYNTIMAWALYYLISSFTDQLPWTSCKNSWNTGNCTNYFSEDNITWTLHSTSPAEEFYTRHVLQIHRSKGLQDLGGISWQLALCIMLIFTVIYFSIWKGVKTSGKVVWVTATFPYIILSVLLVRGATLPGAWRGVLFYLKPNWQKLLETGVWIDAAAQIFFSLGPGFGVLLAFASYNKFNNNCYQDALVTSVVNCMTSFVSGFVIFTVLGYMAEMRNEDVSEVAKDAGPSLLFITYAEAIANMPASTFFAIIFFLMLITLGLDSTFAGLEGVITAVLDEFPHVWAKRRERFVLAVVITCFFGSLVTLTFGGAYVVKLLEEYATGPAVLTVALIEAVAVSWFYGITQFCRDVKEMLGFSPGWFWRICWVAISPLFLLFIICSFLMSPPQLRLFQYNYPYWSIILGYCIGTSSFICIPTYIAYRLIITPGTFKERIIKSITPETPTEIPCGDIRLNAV

Consider `CCCN1CCCC(c2cccc(O)c2)C1` (centres unmarked) [Example 3-PPP, 3-(3-hydroxyphenyl)-N-n-propylpiperidine], for which the “Reversal in reserpine induced DOPA accumulation” value with DOPA levels in striatum (30 mg/kg, 1 h before sacrifice, striatum) stood at 77%.

By Ki is commonly meant a dissociation constant, usually derived from enzyme kinetics or from competition with a known ligand. Take `Cc1nnc(-c2csc(OCCCN3CCN(c4nsc5ccccc45)CC3)n2)o1` [Example-1, 3-(4-{3-[4-(5-Methyl-[1,3,4]oxadiazol-2-yl)-thiazol-2-yloxy]-propyl}-piperazin-1-yl)-benzo[d]isothiazole]: the Ki at human SERT amounted to 54.3 nM; in assay [1] it was 0.51 nM; in assay [2] it was 8.8 nM; at human 5-HT1A receptor it was 0.1 nM; at human 5-HT2A receptor, 0.35 nM; in assay [3], 12.5 nM.

As for `Cc1nc(-c2csc(OCCCN3CCN(c4nsc5ccccc45)CC3)n2)no1` [compound 10, 3-(4-{3-[4-(5-Methyl-[1,2,4]oxadiazol-3-yl)-thiazol-2-yloxy]-propyl}-piperazin-1-yl)-benzo[d]isothiazole oxalate], the inhibition constant Ki on human SERT amounted to 217 nM; in assay [1] it was 1.5 nM; in assay [2], 4.2 nM; at human 5-HT1A receptor it was 0.4 nM; on human 5-HT2A receptor, 0.5 nM; in assay [3], 44.1 nM.

In the case of `c1ccc2c(N3CCN(CCCOc4ccc(-c5cnco5)cn4)CC3)nsc2c1` [compound 22, 3-{4-[3-(5-Oxazol-5-yl-pyridin-2-yloxy)-propyl]-piperazin-1-yl}-benzo[d]isothiazole oxalate], the Ki at human SERT is 18.8 nM; in assay [1], 0.4 nM; in assay [2] it was 1.8 nM; on human 5-HT1A receptor it was 0.3 nM; at human 5-HT2A receptor, 0.01 nM; in assay [3], 5.7 nM.

On to `Cc1nnc(-c2csc(OCCCN3CCC(c4noc5cc(F)ccc45)CC3)n2)o1` [compound 24, 6-Fluoro-3-(1-{3-[4-(5-methyl-[1,3,4]oxadiazol-2-yl)-thiazol-2-yloxy]-propyl}-piperidin-4-yl)-benzo[d]isoxazole oxalate], for which the inhibitory constant (Ki) is 1670 nM at human SERT; 0.7 nM in assay [1]; 3.5 nM in assay [2]; 1.8 nM on human 5-HT1A receptor; 0.3 nM on human 5-HT2A receptor; 1.5 nM in assay [3].

For `COC(=O)[C@H]1[C@H]2C[C@@H]3c4[nH]c5cc(OC)ccc5c4CCN3C[C@H]2C[C@@H](OC(=O)c2cc(OC)c(OC)c(OC)c2)[C@@H]1OC` [reserpine], the “Increase in DOPA levels in striatum” value in the assay on DOPA levels in striatum (reserpine 5 mg/kg, about 18 h before sacrifice) is “about 194%”.

These data come from patent US12338236B2, “Benzoisothiazole and benzoisoxazole compounds for the treatment of mental disorders” (SUVEN LIFE SCIENCES LIMITED, priority 2022, dated 2025).
